From the Kinase Knowledgebase extract (Sharma et al. 2016)
Several values for one entry are separate records, joined by “and”; a condition that tells them apart may be missing. Identical values can stand only once.

These molecules were tested against MAPK14 (human) (UniProt Q16539) (assay: Enzyme Assay).
Sequence of MAPK14 (human) (Q16539 whole entry, looked up): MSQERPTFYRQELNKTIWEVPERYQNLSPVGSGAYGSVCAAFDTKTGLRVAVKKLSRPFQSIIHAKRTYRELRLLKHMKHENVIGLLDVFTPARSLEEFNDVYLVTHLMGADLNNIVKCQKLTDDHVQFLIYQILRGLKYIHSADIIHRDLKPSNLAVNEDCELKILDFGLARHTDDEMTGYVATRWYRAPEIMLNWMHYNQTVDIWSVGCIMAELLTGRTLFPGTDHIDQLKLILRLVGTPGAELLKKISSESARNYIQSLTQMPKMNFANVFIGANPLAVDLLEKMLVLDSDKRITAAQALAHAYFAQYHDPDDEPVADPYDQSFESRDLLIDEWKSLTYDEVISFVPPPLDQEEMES

Ki	Kd [nM]	SMILES
89 nM	–	CC(C)(C)c1cc(NC(=O)Nc2cccc3ccccc23)n(-c2cccc(C(=O)N(CCCN)C3CCCCC3)c2)n1
327 nM	–	CC(C)(C)c1cc(NC(=O)Nc2cccc3ccccc23)n(-c2cccc(C(=O)NCc3ccncn3)c2)n1
735 nM	–	CCN(CCN(C)C)C(=O)c1cccc(-n2nc(C(C)(C)C)cc2NC(=O)Nc2cccc3ccccc23)c1
885 nM	–	CC(C)(C)c1cc(NC(=O)Nc2cccc3ccccc23)n(-c2cccc(C(=O)NC3CCN(CCN4CCOCC4)CC3)c2)n1
471 nM	–	CC(C)[C@H](CO)CNC(=O)c1cccc(-n2nc(C(C)(C)C)cc2NC(=O)Nc2cccc3ccccc23)c1
433 nM	–	CC(C)(C)c1cc(NC(=O)Nc2cccc3ccccc23)n(-c2cccc(C(=O)NCCNc3ccccc3)c2)n1
336 nM	–	COCCCN1CCC(NC(=O)c2cccc(-n3nc(C(C)(C)C)cc3NC(=O)Nc3cccc4ccccc34)c2)CC1
291 nM	–	CC(C)(C)c1cc(NC(=O)Nc2cccc3ccccc23)n(-c2cccc(C(=O)NCCCN3CCOCC3)c2)n1
786 nM	–	CC(C)CC(CNC(=O)c1cccc(-n2nc(C(C)(C)C)cc2NC(=O)Nc2cccc3ccccc23)c1)C(N)=O (stereo not given)
112 nM	–	CC(C)(C)c1cc(NC(=O)Nc2cccc3ccccc23)n(-c2cccc(C(=O)N[C@@H]3CS(=O)(=O)C[C@H]3O)c2)n1
312 nM	–	CC(C)CN(CCCN)C(=O)c1cccc(-n2nc(C(C)(C)C)cc2NC(=O)Nc2cccc3ccccc23)c1
140 nM	–	CN1CCN(CCNC(=O)c2cccc(-n3nc(C(C)(C)C)cc3NC(=O)Nc3cccc4ccccc34)c2)CC1
301 nM	–	CC(C)(C)c1cc(NC(=O)Nc2cccc3ccccc23)n(-c2cccc(C(=O)NCCCN3CCCC3)c2)n1
250 nM and 252 nM	55	CC(C)(C)c1cc(NC(=O)Nc2cccc3ccccc23)n(-c2cccc(C(=O)NCC#N)c2)n1
